From patent US9861616B2, “Methods for treating respiratory diseases and formulations therefor” (priority 2013, dated 2018)
≈ marks a conversion by molar mass, not a printed value.

Experiments:
P. aeruginosa (PA) = experiment: MIC by microdilution, 36 clinical and laboratory strains with known efflux phenotype; assay type: cell-based
Protocol: (§1) MICs of 36 clinical and laboratory strains of PA with known efflux phenotype are measured by microdilution in cation-adjusted Muller-Hinton broth (CA-MHB) or in RPMI medium (commonly used in eukaryotic cell culture). Phe-Arg-β-naphthylamide (PaβN, 50 mg/L) and EGTA 5 mM are used to inhibit efflux pumps and alter OM integrity, respectively. P. aeruginosa strain ATCC PAO1 is used as reference. PA12 is a clinical strain overexpressing the 4 main efflux systems (MexAB, MexCD, MexEF, MexXY), PA403 is a laboratory strain deleted in the genes coding for the 4 efflux systems. A series of reference strains or of clinical isolates for which the expression of genes coding for efflux pumps is known is also used for MICs determinations. MICs are measured by microdilution in MH broth or in RPMI medium (used for eukaryotic cells culture) supplemented with 10% of fetal calf serum, or in MH broth supplemented by increasing amounts of serum. EGTA (5 mM) was used as a chelating agent (disrupting outer membrane integrity) and PaβN (50 mg/L) as an unspecific efflux inhibitor.

P. aeruginosa PA12 = experiment: MIC by microdilution with PaβN or EGTA, clinical isolate overexpressing efflux pumps; assay type: cell-based; details: Pseudomonas aeruginosa
Protocol: as §1

TNFα release = experiment: LPS-induced TNFα release in PMA-differentiated U937 cells (ELISA); assay type: cell-based, human; details: at 100 μM
Protocol: Effects of macrolides on lipopolysaccharide (LPS)-induced TNFα release in PMA-differentiated U937 cells. […] LPS-induced TNFα release was evaluated by ELISA. Values represent means of three experiments±SEM. ^##p<0.01 (vs. non-treatment control), *p<0.05, **p<0.01 (vs. treatment with LPS only).
(§2) The human monocytic cell line U937 was obtained from the American Type Culture Collection (ATCC, Rockville, Md.). PBMCs from COPD patients were obtained from Brompton hospital and separated by AccuSPIN (Sigma-Aldrich). Cells were cultured in complete growth medium (RPMI 1640) (Sigma-Aldrich) supplemented with 10% fetal bovine serum (FBS) and 1% L-glutamine at 37° C. in a humidified atmosphere with 5% CO2. U937 cells were differentiated into adherent macrophage-like morphology by exposure to PMA (50 ng/mL) for 48 hrs in complete growth medium. Cell viability was assessed microscopically by trypan blue staining. Cell toxicity was determined by MTT assay as needed. This study was approved by the ethics committee of the Royal Brompton Hospitals, and all subjects gave written informed consent.
(§3) TNFα and IL-8 concentrations in the supernatant of cell cultures were determined by sandwich ELISA according to the manufacturer's instructions (R&D Systems Europe, Abingdon, UK).
(§4) The results were expressed as the mean±SEM. Comparisons of data in two groups were performed using the Student's t test or the Wilcoxon signed rank test. Multiple comparisons were made by one-way ANOVA with post hoc test (Dunnett's) as appropriate. The difference was considered significant at p<0.05. IC50 values (50% inhibitory concentration) for macrolides for production of cytokines or MMP9 were calculated using Prism 4.0 (GraphPad Software Inc., San Diego, Calif.).

IL-8 (CXCL8) release = experiment: LPS-induced IL-8 (CXCL8) release in PMA-differentiated U937 cells (ELISA); assay type: cell-based, human; details: at 100 μM
Protocol: Effects of macrolides on lipopolysaccharide (LPS)-induced CXCL8 release in PMA-differentiated U937 cells. […] LPS-induced CXCL8 release was evaluated by ELISA. Values represent means of three experiments±SEM. ^##p<0.01 (vs. non-treatment control), *p<0.05, **p<0.01 (vs. treatment with LPS only).
as §2, §3, §4

CC[C@H]1OC(=O)[C@H](C)C(=O)[C@H](C)[C@@H](O[C@@H]2O[C@H](C)C[C@H](N(C)C)[C@H]2O)[C@](C)(OC)C[C@@H](C)C(=O)[C@H](C)[C@H]2N(CCCCn3cnc(-c4cccnc4)c3)C(=O)O[C@]12C [TEL, telithromycin]
MIC (P. aeruginosa (PA); strain 1, efflux AB+, MHB): 128 µg/mL (≈ 158 µM)
MIC (P. aeruginosa (PA); strain 1, efflux AB+, RPMI): 4 µg/mL (≈ 4.93 µM)
MIC (P. aeruginosa (PA); strain 2, efflux CD+, MHB): 256 µg/mL (≈ 315 µM)
MIC (P. aeruginosa (PA); strain 2, efflux CD+, RPMI): 16 µg/mL (≈ 19.7 µM)
MIC (P. aeruginosa (PA); strain 3, efflux EF+, MHB): 64 µg/mL (≈ 78.8 µM)
MIC (P. aeruginosa (PA); strain 3, efflux EF+, RPMI): 0.25 µg/mL (≈ 0.308 µM)
MIC (P. aeruginosa (PA); strain 4, efflux XY+, MHB): 128 µg/mL (≈ 158 µM)
MIC (P. aeruginosa (PA); strain 4, efflux XY+, RPMI): 4 µg/mL (≈ 4.93 µM)
MIC (P. aeruginosa (PA); strain 11, efflux AB + CD+, MHB): 64 µg/mL
MIC (P. aeruginosa (PA); strain 11, efflux AB + CD+, RPMI): 1 µg/mL
MIC (P. aeruginosa (PA); strain 12, efflux AB + CD + EF + XY+, MHB): 128 µg/mL
MIC (P. aeruginosa (PA); strain 12, efflux AB + CD + EF + XY+, RPMI): 4 µg/mL
MIC (P. aeruginosa (PA); strain 16, efflux AB + XY+, MHB): 128 µg/mL
MIC (P. aeruginosa (PA); strain 16, efflux AB + XY+, RPMI): 4 µg/mL
MIC (P. aeruginosa (PA); strain 21, efflux AB+, MHB): 64 µg/mL (≈ 78.8 µM)
MIC (P. aeruginosa (PA); strain 21, efflux AB+, RPMI): 2 µg/mL (≈ 2.46 µM)
MIC (P. aeruginosa (PA); strain 22, efflux XY+, MHB): 128 µg/mL (≈ 158 µM)
MIC (P. aeruginosa (PA); strain 22, efflux XY+, RPMI): 2 µg/mL (≈ 2.46 µM)
MIC (P. aeruginosa (PA); strain 40, efflux EF+, MHB): 64 µg/mL (≈ 78.8 µM)
MIC (P. aeruginosa (PA); strain 40, efflux EF+, RPMI): 2 µg/mL (≈ 2.46 µM)
MIC (P. aeruginosa (PA); strain 41, efflux CD+, MHB): 256 µg/mL (≈ 315 µM)
MIC (P. aeruginosa (PA); strain 41, efflux CD+, RPMI): 4 µg/mL (≈ 4.93 µM)
MIC (P. aeruginosa (PA); strain 48, efflux CD + EF + XY+, MHB): 128 µg/mL
MIC (P. aeruginosa (PA); strain 48, efflux CD + EF + XY+, RPMI): 8 µg/mL
MIC (P. aeruginosa (PA); strain 49, efflux CD + EF + XY+, MHB): 128 µg/mL
MIC (P. aeruginosa (PA); strain 49, efflux CD + EF + XY+, RPMI): 4 µg/mL
MIC (P. aeruginosa (PA); strain 63, efflux AB + EF + XY+, MHB): 128 µg/mL
MIC (P. aeruginosa (PA); strain 63, efflux AB + EF + XY+, RPMI): 4 µg/mL
MIC (P. aeruginosa (PA); strain 68, efflux AB + XY+, MHB): 128 µg/mL
MIC (P. aeruginosa (PA); strain 68, efflux AB + XY+, RPMI): 4 µg/mL
MIC (P. aeruginosa (PA); strain 133, efflux EF + XY+, MHB): 128 µg/mL
MIC (P. aeruginosa (PA); strain 133, efflux EF + XY+, RPMI): 4 µg/mL
MIC (P. aeruginosa (PA); strain 156, efflux EF + XY+, MHB): 128 µg/mL
MIC (P. aeruginosa (PA); strain 156, efflux EF + XY+, RPMI): 2 µg/mL
MIC (P. aeruginosa (PA); strain 168B, efflux CD + XY+, MHB): 256 µg/mL
MIC (P. aeruginosa (PA); strain 168B, efflux CD + XY+, RPMI): 4 µg/mL
MIC (P. aeruginosa (PA); strain 207, efflux AB + EF + XY+, MHB): 128 µg/mL
MIC (P. aeruginosa (PA); strain 207, efflux AB + EF + XY+, RPMI): 4 µg/mL
MIC (P. aeruginosa (PA); strain 266B, efflux AB + CD+, MHB): 256 µg/mL
MIC (P. aeruginosa (PA); strain 266B, efflux AB + CD+, RPMI): 4 µg/mL
MIC (P. aeruginosa (PA); strain 333A, efflux AB + EF+, MHB): 64 µg/mL
MIC (P. aeruginosa (PA); strain 333A, efflux AB + EF+, RPMI): 2 µg/mL
MIC (P. aeruginosa (PA); strain 335, efflux AB + EF+, MHB): 128 µg/mL
MIC (P. aeruginosa (PA); strain 335, efflux AB + EF+, RPMI): 4 µg/mL
MIC (P. aeruginosa (PA); strain 391, efflux EF−, MHB): 64 µg/mL (≈ 78.8 µM)
MIC (P. aeruginosa (PA); strain 391, efflux EF−, RPMI): 2 µg/mL (≈ 2.46 µM)
MIC (P. aeruginosa (PA); strain 392, efflux CD−, MHB): 32 µg/mL (≈ 39.4 µM)
MIC (P. aeruginosa (PA); strain 392, efflux CD−, RPMI): 0.5 µg/mL (≈ 0.616 µM)
MIC (P. aeruginosa (PA); strain 394, efflux XY−, MHB): 64 µg/mL (≈ 78.8 µM)
MIC (P. aeruginosa (PA); strain 394, efflux XY−, RPMI): 1 µg/mL (≈ 1.23 µM)
MIC (P. aeruginosa (PA); strain 395, efflux HI−, MHB): 32 µg/mL (≈ 39.4 µM)
MIC (P. aeruginosa (PA); strain 395, efflux HI−, RPMI): 2 µg/mL (≈ 2.46 µM)
MIC (P. aeruginosa (PA); strain 396, ompH−, MHB): 16 µg/mL (≈ 19.7 µM)
MIC (P. aeruginosa (PA); strain 396, ompH−, RPMI): 0.25 µg/mL (≈ 0.308 µM)
MIC (P. aeruginosa (PA); strain 397, efflux AB−, MHB): 8 µg/mL (≈ 9.85 µM)
MIC (P. aeruginosa (PA); strain 397, efflux AB−, RPMI): 0.03 µg/mL (≈ 0.0369 µM)
MIC (P. aeruginosa (PA); strain 398, efflux CD−, MHB): 8 µg/mL (≈ 9.85 µM)
MIC (P. aeruginosa (PA); strain 398, efflux CD−, RPMI): 0.25 µg/mL (≈ 0.308 µM)
MIC (P. aeruginosa (PA); strain 399, efflux AB − EF−, MHB): 4 µg/mL (≈ 4.93 µM)
MIC (P. aeruginosa (PA); strain 399, efflux AB − EF−, RPMI): 0.25 µg/mL (≈ 0.308 µM)
MIC (P. aeruginosa (PA); strain 400, efflux XY−, MHB): 8 µg/mL (≈ 9.85 µM)
MIC (P. aeruginosa (PA); strain 400, efflux XY−, RPMI): 0.25 µg/mL (≈ 0.308 µM)
MIC (P. aeruginosa (PA); strain 401, ompH−, MHB): 4 µg/mL (≈ 4.93 µM)
MIC (P. aeruginosa (PA); strain 401, ompH−, RPMI): 1 µg/mL (≈ 1.23 µM)
MIC (P. aeruginosa (PA); strain 403, efflux AB − CD − EF − XY−, MHB): 4 µg/mL (≈ 4.93 µM)
MIC (P. aeruginosa (PA); strain 403, efflux AB − CD − EF − XY−, RPMI): 0.5 µg/mL (≈ 0.616 µM)
MIC (P. aeruginosa (PA); strain 405, efflux AB − CD − EF − XY−, MHB): 8 µg/mL (≈ 9.85 µM)
MIC (P. aeruginosa (PA); strain 405, efflux AB − CD − EF − XY−, RPMI): 0.25 µg/mL (≈ 0.308 µM)
MIC (P. aeruginosa (PA); strain 434, efflux AB + CD + XY+, MHB): 128 µg/mL
MIC (P. aeruginosa (PA); strain 434, efflux AB + CD + XY+, RPMI): 4 µg/mL
MIC (P. aeruginosa (PA); strain PAO1, REFERENCE, MHB): 256 µg/mL (≈ 315 µM)
MIC (P. aeruginosa (PA); strain PAO1, REFERENCE, RPMI): 2 µg/mL (≈ 2.46 µM)
MIC (P. aeruginosa PA12; PA12, PA12, CA-MHB, EGTA 5 mM): 32 µg/mL (≈ 39.4 µM)
MIC (P. aeruginosa PA12; PA12, PA12, CA-MHB, PaβN 50 mg/L): 4 µg/mL (≈ 4.93 µM)
MIC (P. aeruginosa PA12; PA12, PA12, CA-MHB, control conditions (CT)): 128 µg/mL (≈ 158 µM)
MIC (P. aeruginosa PA12; PA12, PA12, RPMI, EGTA 5 mM): 1 µg/mL (≈ 1.23 µM)
MIC (P. aeruginosa PA12; PA12, PA12, RPMI, PaβN 50 mg/L): 4 µg/mL (≈ 4.93 µM)
MIC (P. aeruginosa PA12; PA12, PA12, RPMI, control conditions (CT)): 4 µg/mL (≈ 4.93 µM)
IC50 (TNFα release; Homo sapiens, U-937, read-out: IC50, LPS-induced TNFα release: NE at 100 μM, U937 cells): > 100 µM
effect on TNFα production (TNFα release): did not inhibit
IC50 (IL-8 (CXCL8) release; Homo sapiens, U-937, read-out: IC50, LPS-induced IL-8 release: NE at 100 μM, U937 cells): > 100 µM
effect on CXCL8 production (IL-8 (CXCL8) release): did not inhibit
